The results in this text go back to patent publication US20060079550A1, “Amino acid derivatives useful for the treatment of alzheimer's disease” (priority 2001, published 2006).

Like-named read-outs stand apart in the source and are kept apart here. Some results are limits rather than exact numbers.

This assay deals with aspartyl proteases, in particular, beta-secretase. As to the kind of experiment: Ki of the compounds listed in Tables 1 and 2 (no method described). The format is biochemical.
The mark [1] stands for this setting: Table 1, compounds of formula Ia, W is -(CH2)n-.

The Ki is a measure of affinity in units of concentration, obtained from inhibition or displacement. Read a low Ki as higher affinity.

Regarding `CC(C)CN([C@@H](CCCCNC(=O)OCC1c2ccccc2-c2ccccc21)C(=O)O)S(=O)(=O)c1ccc(Br)cc1` [Compound No. 4, Nα-isobutyl-Nα-(4-bromobenzenesulfonyl)-Nε-(9-fluorenylmethoxycarbonyl)-L-lysine], the Ki under setting [1] was 11.4 nM.
`Nc1ccccc1S(=O)(=O)N[C@@H](CCCCNC(=O)OCC1c2ccccc2-c2ccccc21)C(=O)O` [Compound No. 105, Nα-(2-aminobenzenesulfonyl)-Nε-(9-fluorenylmethoxycarbonyl)-L-lysine] gave a Ki under setting [1] of 16000 nM.
Still for that read-out and setting: in the case of `O=C(NCCCC[C@H](NS(=O)(=O)c1cccc2ccccc12)C(=O)O)OCC1c2ccccc2-c2ccccc21` [Compound No. 102, Nα-(1-naphthalenesulfonyl)-Nε-(9-fluorenylmethoxycarbonyl)-L-lysine] it was 2320 nM.
Compound `CC(C)CN([C@@H](CCCCNC(=O)OCC1c2ccccc2-c2ccccc21)C(=O)O)S(=O)(=O)c1ccc(C(C)(C)C)cc1` [Compound No. 10, Nα-isobutyl-Nα-(4-tert-butylbenzenesulfonyl)-Nε-(9-fluorenylmethoxycarbonyl)-L-lysine] displayed an inhibitory constant (Ki) of 257 nM.
With `CC(C)CN([C@@H](CCCCNC(=O)C1c2ccccc2Oc2ccccc21)C(=O)O)S(=O)(=O)c1ccc([N+](=O)[O-])cc1` [Compound No. 96, Nα-isobutyl-Nα-(4-nitrobenzenesulfonyl)-Nε-(9xanthenecarbonyl)-L-lysine], under setting [1], the Ki is 43.9 nM.
On the same count and under the same terms, in the case of `O=C(NCCCC[C@H](NS(=O)(=O)c1ccccc1[N+](=O)[O-])C(=O)O)OCC1c2ccccc2-c2ccccc21` [Compound No. 107, Nα-(2-nitrobenzenesulfonyl)-Nε-(9-fluorenylmethoxycarbonyl)-L-lysine] it was 3970 nM; in that of `CC(C)CN(CCCC[C@H](NC(=O)OCC1c2ccccc2-c2ccccc21)C(=O)O)S(=O)(=O)c1ccc(Br)cc1` [Compound No. 21, Nα-(9-fluorenylmethoxycarbonyl)-Nε-isobutyl-Nε-(4-bromobenzenesulfonyl)-L-lysine], 2000 nM.
`NC(=O)C(CCCCNS(=O)(=O)c1ccc(Br)cc1)NC(=O)OCC1c2ccccc2-c2ccccc21` [Compound No. 20, (2R,2S)-(9-fluorenylmethoxycarbonylamino)-6-(4-bromobenzenesulfonylamino)-1-hexanamide] yielded a Ki under setting [1] of 23000 nM. This Ki lies about 12-fold higher than the previous one.
The same measure, in the same setting: in the case of `COc1ccccc1/C=C/C(=O)NCCCC[C@@H](C(=O)O)N(CC(C)C)S(=O)(=O)c1ccc([N+](=O)[O-])cc1` [Compound No. 161, Nα-isobutyl-Nα-(4-nitrobenzenesulfonyl)-Nε-(trans-2-methoxycinnamoyl)-L-lysine] it was above 300 nM.
Still for that read-out and setting: in the case of `CC(C)CN([C@@H](CCCCNC(=O)CCc1ccccc1N)C(=O)O)S(=O)(=O)c1ccc(N)cc1` [Compound No. 122, Nα-isobutyl-Nα-(4-aminobenzenesulfonyl)-Nε-(2-aminodihydrocinnamoyl)-L-lysine] it was above 300 nM; in that of `O=C(N[C@@H](CCCCNS(=O)(=O)c1ccccc1)C(=O)O)OCC1c2ccccc2-c2ccccc21` [Compound No. 49, Nε-benzenesulfonyl-Nα-(9-fluorchylmethoxycarbonyl)-L-lysine], 8900 nM.
On the same count and under the same terms, in the case of `CC1(C)[C@@H]2CC[C@@]1(CS(=O)(=O)NCCCC[C@H](NC(=O)OCC1c3ccccc3-c3ccccc31)C(=O)O)C(=O)C2` [Compound No. 35, Nε-(1S)-(10-camphorsulfonyl)-Nα-(9-fluorenylmethoxycarbonyl)-L-lysine] it was 33000 nM; in that of `O=C(N[C@@H](CCCCNS(=O)(=O)c1ccccc1Br)C(=O)O)OCC1c2ccccc2-c2ccccc21` [Compound No. 24, Nε-(2-bromobenzenesulfonyl)-Nα-(9-fluorenylmcthoxycarbonyl)-L-lysine], 36000 nM.
`Cc1ccc(S(=O)(=O)N(CC(C)C)C(CCCCNC(=O)OCC2c3ccccc3-c3ccccc32)C(=O)O)cc1` (racemic) [Compound No. 2, Nα-isobutyl-Nα-(4-methylbenzenesulfonyl)-Nε-(9-fluorenylmethoxycarbonyl)-DL-lysine] showed a Ki under setting [1] of 5 nM.
Turning to `Cc1cc(C)c(S(=O)(=O)N(CC(C)C)[C@@H](CCCCNC(=O)OCC2c3ccccc3-c3ccccc32)C(=O)O)c(C)c1` [Compound No. 42, Nα-isobutyl-Nα-(2,4,6-trimethylbenzenesulfonyl)-Nε-(9-fluorenylmethoxycarbonyl)-L-lysine], under setting [1], the inhibitory constant (Ki) was above 100 nM.
Still for that read-out and setting: in the case of `O=C(NCCCC[C@H](NC(=O)OCC1c2ccccc2-c2ccccc21)C(=O)O)OCC1c2ccccc2-c2ccccc21` [Compound No. 71, Nα,Nε-di-(9-fluorenylmethoxycarbonyl)-L-lysine] it was 44800 nM; in that of `O=C(O)[C@H](CCCCNS(=O)(=O)c1ccc(Br)cc1)NC(=O)C(O)(c1ccccc1)c1ccccc1` [Compound No. 37, Nα-(diphenylhydroxyacetyl)-Nε-(4-bromobenzenesulfonyl)-L-lysine], 54000 nM.
Still for that read-out and setting: in the case of `O=C(NCCC[C@H](NC(=O)OCC1c2ccccc2-c2ccccc21)C(=O)O)OCC1c2ccccc2-c2ccccc21` [Compound No. 73, NαNδ-di-(9-fluorenylmethoxycarbonyl)-L-ornithine] it was 1300 nM.
Still for that read-out and setting: in the case of `O=C(N[C@@H](CCCCNS(=O)(=O)c1ccc(Br)cc1)C(=O)O)c1cnc2cc(C(F)(F)F)ccc2c1O` [Compound No. 23, Nα-(4-hydroxy-7-trifluoromethylquinoline-3-carbonyl)-Nε-(4-bromobenzenesulfonyl)-L-lysine] it was above 50000 nM.
`O=C(N[C@@H](CCCCNS(=O)(=O)c1ccc(F)cc1)C(=O)O)OCC1c2ccccc2-c2ccccc21` [Compound No. 55, Nε-(4-fluorobenzenesulfonyl)-Nα-(9-fluorenylmethoxycarbonyl)-L-lysine] came in with an inhibitory constant (Ki) under setting [1] of 6500 nM.
For the compound `CC(C)CN([C@@H](CCCCNS(=O)(=O)Cc1ccccc1)C(=O)O)S(=O)(=O)c1ccc([N+](=O)[O-])cc1` [Compound No. 115, Nα-isobutyl-Nα-(4-nitrobenzenesulfonyl)-Nε-benzylsulfonyl-L-lysine], the Ki under setting [1] was above 300 nM.
On the same count and under the same terms, in the case of `CC(C)CN([C@@H](CCCCNC(=O)C=Cc1ccc([N+](=O)[O-])cc1)C(=O)O)S(=O)(=O)c1ccc([N+](=O)[O-])cc1` [Compound No. 111, Nα-isobutyl-Nα-(4-nitrobenzenesulfonyl)-Nε-(4-nitrocinnamoyl)-L-lysine] it was 34.4 nM; in that of `CC(C)CN(C(CCCCNC(=O)C=Cc1ccccc1[N+](=O)[O-])C(=O)O)S(=O)(=O)c1ccc([N+](=O)[O-])cc1` [Compound No. 109, Nα-isobutyl-Nα-(4-nitrobeiizenesulfonyl)-Nε-(2-nitrocinnamoyl)-L-lysine], above 300 nM.
The same measure, in the same setting: in the case of `O=C(N[C@@H](CCCCNS(=O)(=O)c1cccc2cccnc12)C(=O)O)OCC1c2ccccc2-c2ccccc21` [Compound No. 28, Nε-(8-quinolinesulfonyl)-Nα-(9-fluorenylmethoxycarbonyl)-L-lysine] it was 15000 nM.
The same measure, in the same setting: in the case of `CC(C)CN([C@@H](CCCCNC(=O)CCCc1ccccc1)C(=O)O)S(=O)(=O)c1ccc(N)cc1` [Compound No. 121, Nα-isobutyl-Nα-(4-aminobenzenesulfonyl)-Nε-(4-phenylbutanoyl)-L-lysine] it was above 300 nM; in that of `O=C(NCCCC[C@H](NS(=O)(=O)c1ccc(Cl)cc1)C(=O)O)OCC1c2ccccc2-c2ccccc21` [Compound No. 72, Nα-(4-chlorobenzenesulfonyl)-Nε-(9-fluorenylmethoxycarbonyl)L-lysine], 2380 nM; in that of `Cc1ccc(S(=O)(=O)N(CC(C)C)[C@@H](CCCCNC(=O)CC2c3ccccc3-c3ccccc32)C(=O)O)cc1` [compound 84], 89.7 nM.
Turning to `O=C(O)[C@H](CCCCN(Cc1ccc(F)cc1)S(=O)(=O)c1ccc(Br)cc1)NS(=O)(=O)c1ccc(Br)cc1` [Compound No. 60, Nα,Nε-di-(4-bromobenzenesulfonyl)-Nε-(4-fluorobenzyl)-L-lysine], the Ki under setting [1] is above 50000 nM.
Still for that read-out and setting: in the case of `O=C(O)[C@H](CCCCNS(=O)(=O)c1ccc(Br)cc1)NS(=O)(=O)c1ccc(Br)cc1` [Compound No. 17, Nα,Nε-di-(4-bromobenzenesulfonyl)-L-lysine] it was 7700 nM; in that of `O=C(N[C@@H](CCCCNS(=O)(=O)c1ccc(I)cc1)C(=O)O)OCC1c2ccccc2-c2ccccc21` [Compound No. 64, Nε-(4-iodobenzenesulfonyl)-Nα-(9-fluorenylmethoxycarbonyl)-L-lysine], 19200 nM; in that of `Cc1ccc(S(=O)(=O)N(CC(C)C)[C@@H](CCCCNC(=O)C(c2ccccc2)c2ccccc2)C(=O)O)cc1` [compound 86], 171 nM.
Regarding “Nα-(9-fluorenylmethoxycarbonyl)-L-lysyl-Nα-(9-fluorenylmethoxy-carbonyl)-Nε-(2,4,6trimethylbenzenesulfonyl)-L-lysine [compound 26]”, under setting [1], the affinity corresponds to a Ki of 63000 nM.
Still for that read-out and setting: in the case of `Cc1ccc(S(=O)(=O)NCCC[C@H](NC(=O)OCC2c3ccccc3-c3ccccc32)C(=O)O)cc1` [Compound No. 149, Nδ-(4-methylbenzenesulfonyl)-Nα-(9-fluorenylmethoxycarbonyl)-L-ornithine] it was 10100 nM; in that of `COc1ccc(S(=O)(=O)N(CC(C)C)[C@@H](CCCCNC(=O)OCC2c3ccccc3-c3ccccc32)C(=O)O)cc1` [Compound No. 7], 10.6 nM.
Under setting [1], `Cc1ccc(S(=O)(=O)N(CC(C)C)C(CCCCNC(=O)OCC2c3ccccc3-c3ccccc32)C(=O)NO)cc1` [Compound No. 141, (2R,2S)-N-isobutyl-N-(4-methylbenzenesulfonylamino)-6-(9-fluorenylmethoxycarboxylamino)-1-hydroxylhexamide] came in with a Ki of 245 nM.
The same measure, in the same setting: in the case of `Cc1ccc(S(=O)(=O)N(CC(C)C)[C@@H](CO)CCCCNC(=O)OCC2c3ccccc3-c3ccccc32)cc1` [Compound No. 124, (2R)-N-isobutyl-N-(4-methylbenzenesulfonylamino)-6-(9-fluorenylmethoxycarboxylamino)-1-hexanol] it was 208 nM.
Same read-out and setting: in the case of `Nc1ccc(S(=O)(=O)NCCCC[C@H](NC(=O)OCC2c3ccccc3-c3ccccc32)C(=O)O)cc1` [Compound No. 52, Nε-(4-aminobenzenesulfonyl)-Nα-(9-fluorenylmethoxycarbonyl)-L-lysine] it was 6800 nM.
